For one experiment, the target named is T1, hA2a receptors (Homo sapiens, UniProt P29274).
T1 construct: purchased Receptor Biology, Inc. (USA); host or cells: HEK293 cells
The experiment is described as follows: Adenosine receptor subtype competition radioligand binding assay, hA2a. The conditions noted are these: membranes from hA2a receptors transfected to HEK293 cells, [3H]ZM241385 as radioligand, 90 min at 25° C.; read-out: A2a Antagonism (Ki nM). As to the method:
(§1) Pharmacological Activity Adenosine Receptor Subtype Competition Radioligand Binding Assay
(§2) Human membranes from recombinant adenosine receptors were purchased from Receptor Biology, Inc. (USA)
Competition assays were carried out by incubation of membranes from hA2a receptors transfected to HEK293 cells, [^3H]ZM241385 as radioligand, buffer (50 mM Tris-HCl (pH=7.4), 10 mM MgCl2, 1 mM […], 2 units/ml adenosine deaminase), and unlabelled ligand in a total volume of 0.2 ml for 90 min at 25° C. NECA was used to determinate non-specific binding. Filter over Schleicher & Schuell GF/52 filters (pre-soaked 0.5% polyethylenimine) in a Brandel cell harvester. Unbound radioligand was removed with 3×3 ml ice-cold 50 mM Tris-HCl (pH=7.4), 0.9% NaCl.

A further experiment deals with T2, hA1 receptors (Homo sapiens, UniProt P30542).
T2 construct: purchased Receptor Biology, Inc. (USA); host or cells: CHO cells
T2 sequence (P30542 1-326): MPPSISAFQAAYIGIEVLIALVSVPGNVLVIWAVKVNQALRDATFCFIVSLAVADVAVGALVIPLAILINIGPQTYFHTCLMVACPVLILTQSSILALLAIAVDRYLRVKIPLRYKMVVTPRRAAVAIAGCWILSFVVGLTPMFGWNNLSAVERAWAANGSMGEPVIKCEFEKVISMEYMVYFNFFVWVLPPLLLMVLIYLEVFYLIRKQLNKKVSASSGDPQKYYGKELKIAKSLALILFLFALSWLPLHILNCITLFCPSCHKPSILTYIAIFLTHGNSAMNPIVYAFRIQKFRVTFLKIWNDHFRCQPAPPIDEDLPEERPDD
The experiment is described as follows: Adenosine receptor subtype competition radioligand binding assay, hA1. The conditions noted are these: membranes from hA1 receptors transfected to CHO cells, [3H]-DPCPX as radioligand, 90 min at 25° C.; read-out: A1 Antagonism (Ki nM). On the procedure:
as §1, §2
Competition assays were carried out by incubation of membranes from hA1 receptors transfected to CHO cells, [^3H]-DPCPX as radioligand, buffer (HEPES 20 mM (pH=7.4), 10 mM MgCl2, 100 mM NaCl, 2 units/ml adenosine deaminase), and unlabelled ligand in a total volume of 0.2 ml for 90 min at 25° C. R-PIA was used to determinate non-specific binding. Filter over Schleicher & Schuell GF/52 filters (pre-soaked 0.5% polyethylenimine) in a Brandel cell harvester. Unbound radioligand was removed with HEPES 30 mM (3×250 μl), NaCl (100 mM) and MgCl2 (10 mM).

T1 sequence (P29274 whole entry): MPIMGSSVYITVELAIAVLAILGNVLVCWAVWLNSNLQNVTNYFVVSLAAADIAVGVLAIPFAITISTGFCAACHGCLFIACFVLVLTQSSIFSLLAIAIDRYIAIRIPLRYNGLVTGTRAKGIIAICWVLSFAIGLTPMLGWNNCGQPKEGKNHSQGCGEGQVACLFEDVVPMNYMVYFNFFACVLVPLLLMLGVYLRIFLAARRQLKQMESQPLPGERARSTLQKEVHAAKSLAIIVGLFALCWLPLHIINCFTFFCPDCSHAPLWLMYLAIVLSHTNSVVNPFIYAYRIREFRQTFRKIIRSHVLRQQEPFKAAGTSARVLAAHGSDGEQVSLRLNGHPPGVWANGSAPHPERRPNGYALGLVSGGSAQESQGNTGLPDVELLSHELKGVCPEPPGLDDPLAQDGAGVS

As a reminder, the Ki is the dissociation constant of the complex between target and ligand, obtained from inhibition or displacement. Take `N#Cc1sc(NC(=O)[C@@H]2CCC[C@H](C(=O)O)C2)nc1-c1ccccc1` (relative stereo) [Example 8, Cis-3-(5-cyano-4-phenyl-1,3-thiazol-2-ylcarbamoyl)cyclohexane Carboxylic Acid]: the figures for the inhibition constant Ki at hA2a receptors and at hA1 receptors were more than 1200 nM and 17 nM, respectively.

Turning to `N#Cc1sc(NC(=O)[C@@H]2CCC[C@H](C(=O)O)C2)nc1-c1ccccc1Cl` (relative stereo) [Example 26, Cis-3-[4-(2-chlorophenyl)-5-cyano-1,3-thiazol-2-ylcarbamoyl]cyclohexanecarboxylic Acid], the values for the Ki on hA2a receptors and on hA1 receptors were 3670 nM and 31 nM, respectively.

For `N#Cc1sc(NC(=O)[C@@H]2CC[C@H](C(=O)O)C2)nc1-c1ccccc1F` (relative stereo) [Example 50, Cis-3-[5-cyano-4-(2-fluorophenyl)-1,3-thiazol-2-ylcarbamoyl]cyclopentanecarboxylic Acid], the values for the Ki on hA2a receptors and at hA1 receptors were more than 1300 nM and 16 nM, respectively.

Turning to `N#Cc1sc(NC(=O)[C@@H]2CCC[C@H](C(=O)O)C2)nc1-c1cccc(F)c1` (relative stereo) [Example 75, Cis-3-[5-cyano-4-(3-fluorophenyl)-1,3-thiazol-2-ylcarbamoyl]cyclohexanecarboxylic Acid], the results for the Ki on hA2a receptors and at hA1 receptors were 1840 nM and 14 nM, respectively.

With `N#Cc1sc(NC(=O)[C@@H]2CCC[C@H](C(=O)O)C2)nc1-c1cc(F)cc(F)c1` (relative stereo) [Example 114, Cis-3-[5-cyano-4-(3,5-difluorophenyl)-1,3-thiazol-2-ylcarbamoyl]cyclohexanecarboxylic Acid], the Ki at hA2a receptors was more than 10000 nM; on hA1 receptors, 32 nM.

Turning to `CC(C)(CCC(=O)O)C(=O)Nc1nc(-c2ccccc2)c(C#N)s1` [Example 2, 4-(5-cyano-4-phenyl-1,3-thiazol-2-ylcarbamoyl)-4-methylpentanoic Acid], the figures for the inhibition constant Ki at hA2a receptors and at hA1 receptors were more than 10000 nM and 43 nM, respectively.

Regarding `N#Cc1sc(NC(=O)C2CCC(C(=O)O)C2)nc1-c1ccccc1` (stereo not shown) [Example 5, 3-(5-cyano-4-phenyl-1,3-thiazol-2-ylcarbamoyl)cyclopentane Carboxylic Acid], the Ki at hA2a receptors came out at 940 nM; on hA1 receptors, 6.4 nM.

As for `N#Cc1sc(NC(=O)[C@H]2CC[C@@H](C(=O)O)CC2)nc1-c1ccccc1` [Example 10, Cis-4-(5-cyano-4-phenyl-1,3-thiazol-2-ylcarbamoyl)cyclohexane Carboxylic Acid], the Ki on hA2a receptors is 1080 nM; on hA1 receptors it was 7 nM.

For the compound `N#Cc1sc(NC(=O)[C@H]2CC[C@H](C(=O)O)CC2)nc1-c1cccc(Cl)c1` [Example 36, trans-4-[4-(3-chlorophenyl)-5-cyano-1,3-thiazol-2-ylcarbamoyl]cyclohexanecarboxylic Acid], the figures for the Ki on hA2a receptors and at hA1 receptors were 487 nM and 25 nM, respectively.

`CC(C)(CCC(=O)O)C(=O)Nc1nc(-c2cccc(F)c2)c(C#N)s1` [Example 68, 4-[5-cyano-4-(3-fluorophenyl)-1,3-thiazol-2-ylcarbamoyl]-4-methylpentanoic Acid]: the inhibition constant Ki at hA2a receptors was more than 4000 nM; on hA1 receptors it was 51 nM.

As to `N#Cc1sc(NC(=O)[C@H]2CC[C@@H](C(=O)O)CC2)nc1-c1cccc(F)c1` [Example 77, Cis-4-[5-cyano-4-(3-fluorophenyl)-1,3-thiazol-2-ylcarbamoyl]cyclohexanecarboxylic Acid], the figures for the inhibition constant Ki on hA2a receptors and at hA1 receptors were 776 nM and 6 nM, respectively.

For the origin of these results see patent US8410282B2, “Compounds as adenosine A1 receptor antagonists” (Palobiofarma, S.L., priority 2007, dated 2013).
